Laboratory results published in patent publication US20250144067A1, “PERSONALIZED STARVATION THERAPY FOR CANCER” (Faeth Therapeutics, Inc., priority 2021, published 2025).
Structures can show the parent of a compound that is named as a salt.

Legend:
[1] = system: NCI-H292 lung cancer cells; assay: FDA drug screening, complete media vs cholesterol-free media without statin (TABLE 1); format: cell-based, human
[2] = system: NCI-H292 lung cancer cells; assay: FDA drug screening, complete media vs cholesterol-free media with simvastatin (TABLE 2); format: cell-based, human; details: for Cholesterol-free media + simvastatin (0.04 μM) / Complete Media: NCI-H292 cells
[3] = NCI-H292 cells, cholesterol-free media without statin
[4] = complete vs cholesterol-free media, […]
[5] = FDA library drug in cholesterol-free media with simvastatin 0.04 μM
[6] = NCI-H292 cells, cholesterol-free media without statin, FDA drug library screen
[7] = NCI-H292 cells, complete media, FDA drug library screen
[8] = complete vs cholesterol-free media, >0 enhanced anti-cancer activity, about 0 neutral, <0 antagonist
[9] = cholesterol-free media with simvastatin 0.04 μM, FDA drug library screen (TABLE 2)
[10] = complete media, FDA drug library screen (TABLE 2)
[11] = complete media minus cholesterol-free media + simvastatin (0.04 μM), >0 enhanced anti-cancer activity, about 0 neutral, <0 antagonist
[12] = Complete minus Cholesterol-free, greater than 0 enhanced anti-cancer activity, about 0 neutral, below 0 antagonists
[13] = NCI-H292 cells in cholesterol-free media without statin
[14] = NCI-H292 cells in complete media
[15] = FDA drug library screen, cholesterol-free media with simvastatin 0.04 μM
[16] = FDA drug library screen, complete media
[17] = complete media minus cholesterol-free media + simvastatin, >0 enhanced anti-cancer activity, about 0 neutral, <0 antagonist
[18] = Complete minus Cholesterol-free, greater than 0 enhanced anti-cancer activity, about 0 neutral, below 0 antagonist
[19] = NCI-H292 cells, FDA drug library screen, cholesterol-free media without statin
[20] = NCI-H292 cells, FDA drug library screen, complete media
[21] = cholesterol-free media with simvastatin 0.04 μM, cell growth value in FDA drug screen
[22] = complete media, cell growth value in FDA drug screen
[23] = complete media vs cholesterol-free media + simvastatin (0.04 μM), >0 enhanced anti-cancer activity, about 0 neutral, <0 antagonist
[24] = Complete minus Cholesterol-free, >0 enhanced anti-cancer activity, about 0 neutral, <0 antagonist
[25] = FDA library drug in complete media
[26] = drug in cholesterol-free media with simvastatin 0.04 μM
[27] = Complete minus Cholesterol-free, […]
[28] = complete vs cholesterol-free media, greater than 0 enhanced anti-cancer activity, about 0 neutral, below 0 antagonists
[29] = complete media minus cholesterol-free media + simvastatin, […]

CC(C)[N+]1(C)[C@@H]2CC[C@H]1CC(OC(=O)C(CO)c1ccccc1)C2.[Br-] (stereo partly shown) [Ipratropium (bromide)]
Cholesterol-free [1, 3]: 1.233
Complete ([1]; NCI-H292 cells, complete media): 0.8969
Difference [1, 4]: −0.34
Cholesterol-free media + simvastatin (0.04 μM) [2, 5]: 1.536
Difference ([2]; complete media vs cholesterol-free media + simvastatin (0.04 μM), […]): −0.39

CC(C)Oc1ccc2c(=O)c(-c3ccccc3)coc2c1 [Ipriflavone]
Cholesterol-free [1, 6]: 0.6871
Complete [1, 7]: 1.135
Difference [1, 8]: 0.45
Cholesterol-free media + simvastatin (0.04 μM) [2, 9]: 1.029
Complete Media [2, 10]: 1.016
Difference [2, 11]: −0.01

CC(C)NNC(=O)c1ccncc1 [Iproniazid]
Difference [1, 12]: −0.56
Cholesterol-free [1, 13]: 1.339
Complete [1, 14]: 0.7813
Cholesterol-free media + simvastatin (0.04 μM) [2, 15]: 1.211
Complete Media [2, 16]: 1.75
Difference [2, 17]: 0.54

CCCCC1=NC2(CCCC2)C(=O)N1Cc1ccc(-c2ccccc2-c2nnn[nH]2)cc1 [Irbesartan]
Difference [1, 18]: −0.08
Cholesterol-free [1, 19]: 0.8711
Complete [1, 20]: 0.7887
Cholesterol-free media + simvastatin (0.04 μM) [2, 21]: 0.9096
Complete Media [2, 22]: 0.9697
Difference [2, 17]: 0.06

CCc1c2c(nc3ccc(OC(=O)N4CCC(N5CCCCC5)CC4)cc13)-c1cc3c(c(=O)n1C2)COC(=O)[C@]3(O)CC [Irinotecan (hydrochloride trihydrate)]
Difference [1, 18]: −0.10
Cholesterol-free [1, 19]: 0.3845
Complete [1, 20]: 0.2808
Cholesterol-free media + simvastatin (0.04 μM) [2, 15]: 0.6283
Complete Media [2, 16]: 0.5165
Difference [2, 23]: −0.11

CCc1c2c(nc3ccc(OC(=O)N4CCC(N5CCCCC5)CC4)cc13)-c1cc3c(c(=O)n1C2)COC(=O)[C@]3(O)CC [Irinotecan (hydrochloride)]
Difference [1, 24]: 0.02
Cholesterol-free [1, 6]: 1.352
Complete [1, 7]: 1.37
Cholesterol-free media + simvastatin (0.04 μM) [2, 21]: 0.928
Complete Media [2, 22]: 1.063
Difference [2, 17]: 0.13

CCc1c2c(nc3ccc(OC(=O)N4CCC(N5CCCCC5)CC4)cc13)-c1cc3c(c(=O)n1C2)COC(=O)[C@]3(O)CC [Irinotecan]
Difference [1, 18]: −0.08
Cholesterol-free [1, 19]: 0.2676
Complete [1, 20]: 0.1842
Cholesterol-free media + simvastatin (0.04 μM) [2, 5]: 0.729
Complete Media [2, 25]: 0.3631
Difference [2, 23]: −0.37

Nc1nc(N)nc(-c2cc(Cl)ccc2Cl)n1 [Irsogladine]
Difference [1, 24]: −0.28
Cholesterol-free [1, 3]: 1.27
Complete ([1]; NCI-H292 cells, complete media): 0.9941
Cholesterol-free media + simvastatin (0.04 μM) [2, 26]: 1.185
Complete Media ([2]; drug in complete media): 0.995
Difference [2, 23]: −0.19

Cc1cc(C(=O)NNCc2ccccc2)no1 [Isocarboxazid]
Cholesterol-free [1, 6]: 0.685
Complete [1, 7]: 1.428
Difference [1, 8]: 0.74
Cholesterol-free media + simvastatin (0.04 μM) [2, 9]: 1.551
Complete Media [2, 10]: 1.506
Difference [2, 11]: −0.05

COc1ccc2c(c1O)-c1c(OC)c(OC)cc3c1[C@H](C2)N(C)CC3 [Isocorydine]
Difference [1, 27]: −0.17
Cholesterol-free [1, 19]: 1.162
Complete [1, 20]: 0.9961
Cholesterol-free media + simvastatin (0.04 μM) [2, 9]: 1.273
Complete Media [2, 10]: 1.214
Difference ([2]; complete media minus cholesterol-free media + simvastatin (0.04 μM), […]): −0.06

NNC(=O)c1ccncc1 [Isoniazid]
Cholesterol-free [1, 6]: 0.6633
Complete [1, 7]: 1.357
Difference [1, 8]: 0.69
Cholesterol-free media + simvastatin (0.04 μM) [2, 15]: 1.455
Complete Media [2, 16]: 1.672
Difference [2, 17]: 0.22

CC(C)NCC(O)c1ccc(O)c(O)c1 (stereo not shown) [Isoprenaline (hydrochloride)]
Difference [1, 12]: −0.50
Cholesterol-free [1, 13]: 1.676
Cholesterol-free media + simvastatin (0.04 μM) [2, 15]: 1.496
Complete Media [2, 16]: 1.355
Difference [2, 23]: −0.14

CC(C)[N+](C)(CCC(C(N)=O)(c1ccccc1)c1ccccc1)C(C)C.[I-] [Isopropamide (iodide)]
Cholesterol-free [1, 3]: 1.319
Complete ([1]; NCI-H292 cells, complete media): 0.9185
Difference [1, 28]: −0.40
Cholesterol-free media + simvastatin (0.04 μM) [2, 21]: 0.9908
Complete Media [2, 22]: 1.047
Difference [2, 17]: 0.06

O=[N+]([O-])O[C@@H]1CO[C@H]2[C@@H]1OC[C@@H]2O [Isosorbide mononitrate]
Cholesterol-free [1, 3]: 1.459
Complete ([1]; NCI-H292 cells, complete media): 1.127
Difference [1, 4]: −0.33
Cholesterol-free media + simvastatin (0.04 μM) [2, 15]: 0.8339
Complete Media [2, 16]: 1.021
Difference [2, 29]: 0.19

O[C@@H]1CO[C@H]2[C@@H]1OC[C@@H]2O [Isosorbide]
Difference [1, 24]: −0.05
Cholesterol-free [1, 6]: 1.174
Complete [1, 7]: 1.123
Cholesterol-free media + simvastatin (0.04 μM) [2, 15]: 0.9214
Complete Media [2, 16]: 1.515
Difference [2, 17]: 0.59

CCN(CC)c1ccc(C(=C2C=CC(=[N+](CC)CC)C=C2)c2cc(S(=O)(=O)[O-])ccc2S(=O)(=O)[O-])cc1.[Na+] [Isosulfan blue]
Difference [1, 27]: −0.07
Cholesterol-free [1, 6]: 1.156
Complete [1, 7]: 1.087
Cholesterol-free media + simvastatin (0.04 μM) ([2]; cholesterol-free media with simvastatin 0.04 μM, […]): 1.148
Complete Media ([2]; complete media, […]): 1.247
Difference [2, 29]: 0.10

Cc1cc(NC(=O)C2=C(O)c3ccccc3S(=O)(=O)N2C)no1 [Isoxicam]
Difference [1, 12]: −0.71
Cholesterol-free [1, 13]: 1.72
Complete [1, 14]: 1.015
Cholesterol-free media + simvastatin (0.04 μM) [2, 26]: 1.282
Complete Media ([2]; drug in complete media): 1.064
Difference [2, 23]: −0.22

CC(COc1ccccc1)NC(C)C(O)c1ccc(O)cc1 (stereo not shown) [Isoxsuprine hydrochloride]
Cholesterol-free [1, 3]: 1.314
Complete ([1]; NCI-H292 cells, complete media): 0.939
Difference [1, 28]: −0.38
Cholesterol-free media + simvastatin (0.04 μM) [2, 26]: 0.8873
Complete Media ([2]; drug in complete media): 0.6774
Difference [2, 23]: −0.21

COC(=O)C1=C(C)NC(C)=C(C(=O)OC(C)C)C1c1cccc2nonc12 (stereo not shown) [Isradipine]
Cholesterol-free [1, 3]: 1.16
Complete ([1]; NCI-H292 cells, complete media): 0.8034
Difference [1, 28]: −0.36
Cholesterol-free media + simvastatin (0.04 μM) [2, 15]: 0.7485
Complete Media [2, 16]: 1.061
Difference [2, 17]: 0.31

CCn1c(=O)c2c(nc(/C=C/c3ccc(OC)c(OC)c3)n2C)n(CC)c1=O [Istradefylline]
Cholesterol-free [1, 6]: 0.9821
Difference [1, 8]: 0.19
Cholesterol-free media + simvastatin (0.04 μM) [2, 26]: 1.183
Complete Media ([2]; drug in complete media): 0.9547
Difference [2, 23]: −0.23

COc1ccc(C(=O)NCc2ccc(OCCN(C)C)cc2)cc1OC [Itopride (hydrochloride)]
Difference [1, 24]: −0.04
Cholesterol-free [1, 6]: 1.141
Complete [1, 7]: 1.104
Cholesterol-free media + simvastatin (0.04 μM) [2, 5]: 1.711
Complete Media [2, 25]: 1.056
Difference [2, 23]: −0.65

CCC(C)n1ncn(-c2ccc(N3CCN(c4ccc(OCC5COC(Cn6cncn6)(c6ccc(Cl)cc6Cl)O5)cc4)CC3)cc2)c1=O (stereo not shown) [Itraconazole]
Cholesterol-free [1, 6]: 0.7502
Complete [1, 7]: 1.257
Difference [1, 8]: 0.51
Cholesterol-free media + simvastatin (0.04 μM) [2, 15]: 1.121
Complete Media [2, 16]: 0.9797
Difference [2, 23]: −0.14

COc1cc2c(cc1OC)CC(=O)N(CCCN(C)C[C@H]1Cc3cc(OC)c(OC)cc31)CC2 [Ivabradine (hydrochloride)]
Difference [1, 28]: −0.47
Cholesterol-free media + simvastatin (0.04 μM) [2, 15]: 1.338
Complete Media [2, 16]: 1.217
Difference [2, 23]: −0.12

CC(C)(C)c1cc(C(C)(C)C)c(NC(=O)c2c[nH]c3ccccc3c2=O)cc1O [Ivacaftor]
Difference [1, 18]: −0.10
Cholesterol-free [1, 19]: 0.9826
Complete [1, 20]: 0.878
Cholesterol-free media + simvastatin (0.04 μM) [2, 15]: 1.021
Complete Media [2, 16]: 0.931
Difference [2, 23]: −0.09
